Results reported in publication PMC4510645, “Discovery of intramolecular trans-sialidases in human gut microbiota suggests novel mechanisms of mucosal adaptation” (Nature Communications, 2015).
Where “and” joins values, the source holds several entries; their conditions need not be identical. Equal entries are not always repeated. Where two headings read alike, the source gives them in different places.

Assays:
[1] = tested on: AkmNan0625 and AkmNan1835; experiment: Specificity against sialyl-oligosaccharides, HPAEC-PAD (control sialidases); format: biochemical, Akkermansia muciniphila; set-up: key to Activity AkmNan0625 and AkmNan1835: +: Activity was defined as disappearance of the substrate peak and appearance of a lower-molecular weight peak, which could correspond to the desialylated substrate; conditions: substrate 1 mM, 1 nM enzyme, 37 °C, pH 6.5, overnight
Protocol: (§1) Figure 2 Specificity of RgNanH towards sialylated oligosaccharides. The enzymes were incubated with sialylated substrates at 37 °C, pH 6.5, overnight and the reaction products were analysed by HPAEC-PAD. Control reactions without enzyme were also performed. The injection peak is marked (inj). Glycerol (gly) was also present in AkmNan0625. (a) Standards (Lac, Neu5Ac, 3′SL and 6′SL), (b) 3′SL, (c) 6′SL and (d) 3'-α-sialyl-N-acetyllactosamine (3′SLacNAc). AkmNan1835 has a similar profile to […].
All chemicals were obtained from Sigma (St Louis, USA) unless otherwise stated. The A. muciniphila sialidases, termed here AkmNan0625 and AkmNan1835, were obtained by His-Tag overexpression of their genes (Amuc_0625 and Amuc_1835, respectively)[56] in E. coli BL21(DE3) and subsequent purification to homogeneity by immobilized metal affinity chromatography as described below. The sialylated oligosaccharides and OC were obtained from Carbosynth (Berks, UK).
(§2) The purified enzymes were incubated with the substrate in buffer made from 20 mM Na2HPO4 and 20 mM NaH2PO4 adjusted to pH 6.5 containing 1 mg ml^−1 BSA at 37 °C unless otherwise stated. For 4MU-Neu5Ac, the progression of the reaction was monitored by the release of the MU using a 96-well plate reader (BMG Labtech, Ortenberg, Germany) using fluorescence with an excitation at 340 nm and an emission at 420 nm. For determining the optimal temperature, the assay was carried out in 20 mM PBS at pH 7.4. For determining the optimal pH, the assay was carried out at 37 °C using buffer made from 20 mM Na2HPO4 and 20 mM NaH2PO4 in varying proportions to obtain the desired pH. PNP release from PNP-Neu5Ac was monitored in a similar way measuring absorbance at 405 nm every 60 s. For 3′SL, the reaction was monitored by HPAEC-PAD. An aliquot of the reaction was removed from the main reaction volume at the reaction stopped by boiling for 20 min, the enzyme was then removed by centrifugation at 17,000g for 10 min and filtration with a 0.2-μm filter (Millipore, Billerica, USA). The sugars were separated by HPAEC with an isocratic gradient of 100 mM NaOH and 100 mM NaAC at 1 ml min^−1 on a CarboPac PA1 protected with a guard column and detected using PAD on a Dionex ICS5000 system (Thermo Scientific, Hemel Hempstead, UK). The column was cleaned with 10 ml of 500 mM NaOH and 500 mM NaAc, and the column was re-equilibrated with 100 mM NaOH and 100 mM NaAc. An internal standard of fucose was used to quantify the results.
(§3) For specificity tests against sialylated oligosaccharides (1 mM) and glycoproteins (1 mg ml^−1), 1 nM of enzyme was incubated with the substrate at 37 °C, pH 6.5, overnight.

[2] = target: T1, RgNanH (Mediterraneibacter gnavus (Ruminococcus gnavus), UniProt A7B557); experiment: Specificity against sialyl-oligosaccharides, HPAEC-PAD; format: biochemical, Ruminococcus gnavus ATCC 29149; set-up: key to Activity RgNanH: +: Activity was defined as disappearance of the substrate peak and appearance of a lower-molecular weight peak, which could correspond to the desialylated substrate; conditions: substrate 1 mM, 1 nM enzyme, 37 °C, pH 6.5, overnight
T1 sequence (A7B557 26-723): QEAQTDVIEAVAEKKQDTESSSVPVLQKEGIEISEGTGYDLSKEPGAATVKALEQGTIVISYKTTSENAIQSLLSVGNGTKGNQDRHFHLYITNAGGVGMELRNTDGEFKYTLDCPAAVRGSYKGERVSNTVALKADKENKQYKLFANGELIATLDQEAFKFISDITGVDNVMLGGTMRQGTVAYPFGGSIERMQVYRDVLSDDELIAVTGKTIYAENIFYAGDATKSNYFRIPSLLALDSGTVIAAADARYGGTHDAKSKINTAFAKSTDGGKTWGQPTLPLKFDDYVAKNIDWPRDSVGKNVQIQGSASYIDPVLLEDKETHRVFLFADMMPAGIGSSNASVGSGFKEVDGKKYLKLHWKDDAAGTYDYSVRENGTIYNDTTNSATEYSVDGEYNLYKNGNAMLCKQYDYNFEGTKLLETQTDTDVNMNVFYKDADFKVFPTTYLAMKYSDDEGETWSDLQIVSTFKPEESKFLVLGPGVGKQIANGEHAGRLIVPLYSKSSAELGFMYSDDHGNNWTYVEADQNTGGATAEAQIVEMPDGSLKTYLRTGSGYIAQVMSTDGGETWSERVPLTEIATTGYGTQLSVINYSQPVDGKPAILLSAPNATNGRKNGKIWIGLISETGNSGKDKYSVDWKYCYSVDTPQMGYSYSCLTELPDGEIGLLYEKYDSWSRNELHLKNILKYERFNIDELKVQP
Protocol: as §1, §2, §3

[3] = target: T1, RgNanH; experiment: Kinetic parameters of RgNanH with sialylated substrates; format: biochemical, Ruminococcus gnavus ATCC 29149; conditions: pH 6.5, 37 °C
Protocol: as §2
For 4MU-Neu5Ac and 3′SL, the rate of hydrolysis without enzyme was not significant, thus raw data were used. However, for pNP-Neu5Ac, the rate of hydrolysis without enzyme was significant, thus the rate with enzyme was corrected by the subtraction of the rate without enzyme at each concentration of substrate. For 3′SL, the rate of reaction was calculated by plotting the amount of substrate remaining over the course of >50 % of the reaction using the following equation[58]: […]
Where k is kcat/KM × enzyme concentration, t is time, [S0] and [St] are substrate concentrations at time 0 and t, respectively.
Kinetic data were obtained from at least duplicate (usually triplicate) experiments, and the kinetic parameters were calculated by fitting the initial raw data to the Michaelis–Menten equation using a nonlinear regression analysis programme (Prism 6, GraphPad, San Diego, USA), and error bars (s.e.m.) are shown.

[4] = target: T1, RgNanH; experiment: Inhibition of RgNanH activity against 4MU-Neu5Ac by neuraminidase inhibitors; format: biochemical, Ruminococcus gnavus ATCC 29149; conditions: for LogIC50 / IC50: 4MU-Neu5Ac 0.51 mM, pre-incubated 15 min at 37 °C, pH 6.5
Protocol: Figure 1 Kinetic analysis of the hydrolysis of sialylated substrates by RgNanH in presence or absence of inhibitors. Substrate (a) 4MU-Neu5Ac or (b) PNP-Neu5Ac was incubated with RgNanH ([…] and 0.43 nM, respectively) at 37 °C, pH 6.5 and the release of product measured using a plate reader. (c) Inhibition of RgNanH (1.00 nM) incubated with 4MU-Neu5Ac (0.51 mM) by zanamivir (●), Neu5Ac2en (▪), siastatin B (▴) and OC (♦), the rates are normalized to a % of the uninhibited rate. [I] is the inhibitor concentration. (d) 3′SL was incubated with RgNanH (2.25 nM) and the release of product measured by HPAEC-PAD. Experiments were done at least in duplicate (usually triplicate) and the error bars show the s.e.m.
as §2, with “results. […]” for “results.”

Row | Compound | Activity AkmNan0625 and AkmNan1835 [1] | Activity RgNanH [2] | LogIC50 ([4]; RgNanH 1.00 nM) | IC50 ([4]; RgNanH 1.00 nM, read-out: IC50) | other results
1 | CO[C@@H]1O[C@H](CO)[C@@H](O[C@@H]2O[C@H](CO)[C@H](O)[C@H](O[C@]3(C(=O)O)C[C@H](O)[C@@H](NC(C)=O)[C@H]([C@H](O)[C@H](O)CO)O3)[C@H]2O)[C@H](O[C@@H]2O[C@@H](C)[C@@H](O)[C@@H](O)[C@@H]2O)[C@H]1NC(C)=O [3′-Sialyl Lewis X methyl glycoside, Neu5Ac-α-2-3-Gal-β-1-4-[Fuc-a-1-3]-GlcNAc-β-OMe] | + | + |  |  | 
2 | CC(=O)N[C@H]1[C@H]([C@H](O)[C@H](O)CO)O[C@@](O[C@H]2[C@@H](O)[C@@H](CO)O[C@@H](O[C@H]3[C@H](O[C@@H]4O[C@@H](C)[C@@H](O)[C@@H](O)[C@@H]4O)[C@@H](NC(C)=O)C(O)O[C@@H]3CO)[C@@H]2O)(C(=O)O)C[C@@H]1O (stereo partly drawn) [3′-Sialyl Lewis X, Neu5Ac-α-2-3-Gal-β-1-4-[Fuc-a-1-3]-GlcNAc] | + | + |  |  | 
3 | CC(=O)N[C@H]1[C@H]([C@H](O)[C@H](O)CO)O[C@@](O[C@H]2[C@@H](O)[C@@H](CO)O[C@@H](O[C@H]3[C@H](O[C@@H]4O[C@@H](C)[C@@H](O)[C@@H](O)[C@@H]4O)[C@@H](O)C(O)O[C@@H]3CO)[C@@H]2O)(C(=O)O)C[C@@H]1O (stereo partly drawn) [3′-Sialyl-3-fucosyllactose, Neu5Ac-α-2-3-Gal-β1-4-[Fuc-α-1-3]-Glc] | + | + |  |  | 
4 | CC(=O)NC1C(O)CC(OC2C(O)C(O)OC(CO)C2O)(C(=O)O)OC1C(O)C(O)CO (stereo not drawn) [3′-Sialylgalactose, Neu5Ac-α-2-3-Gal] | + | + |  |  | 
5 | CC(=O)N[C@@H]1[C@@H](O)C[C@](Oc2ccc3c(C)cc(=O)oc3c2)(C(=O)O)O[C@H]1C(O)[C@H](O)CO (stereo partly drawn) [4MU-Neu5Ac, 2′-(4-methylumbelliferyl)-α-D-N-acetylneuraminic acid] |  |  |  |  | Ki ([3]; substrate inhibition, s.e.m.): 2.37 ± 0.65 mM; kcat ([3]; substrate of RgNanH): 6210 min⁻¹; Km ([3]; substrate of RgNanH, s.e.m.): 590 ± 170 µM; Vmax ([3]; substrate of RgNanH, s.e.m.): 1.37 ± 0.23 µM/min
6 | CC(=O)N[C@H]1[C@H]([C@H](O)[C@H](O)CO)OC(OC[C@H]2OC(O)[C@H](O)[C@@H](O)[C@H]2O)(C(=O)O)C[C@@H]1O (stereo partly drawn) [6′-Sialylgalactose, Neu5Ac-α-2-6-Gal] | + |  |  |  | 
7 | CC(=O)N[C@H]1[C@H]([C@H](O)[C@H](O)CO)OC(C(=O)O)=C[C@@H]1O [Neu5Ac2en, 2-deoxy-2,3-didehydro-D-N-acetylneuraminic acid] |  |  | 0.15±0.04 | 1.4 mM and 1.41 mM | 
8 | CCC(CC)O[C@@H]1C=C(C(=O)O)C[C@H](N)[C@H]1NC(C)=O [Oseltamivir carboxylate] |  |  | −1.53±0.02 | 0.0296 mM | improvement in inhibition of RgNanH ([4]; compared with Neu5Ac2en (IC50: 1.4 mM to 30 μM)): ~50 fold
9 | CC(=O)N[C@H]1[C@H]([C@H](O)[C@H](O)CO)O[C@@](Oc2ccc([N+](=O)[O-])cc2)(C(=O)O)C[C@@H]1O [PNP-Neu5Ac, 2-O-(p-nitrophenyl)-α-D-N-acetylneuraminic acid] |  |  |  |  | kcat ([3]; substrate of RgNanH): <152 ^* min^−1; Km ([3]; substrate of RgNanH, s.e.m.): > 25000 µM
10 | CC(=O)N[C@H]1NC[C@H](C(=O)O)[C@H](O)[C@@H]1O [Siastatin B] |  |  | −2.31±0.02 | 0.00487 mM | 
11 | CC(=O)N[C@H]1[C@H]([C@H](O)[C@H](O)CO)OC(C(=O)O)=C[C@@H]1N=C(N)N [Zanamivir, 4-guanidino-Neu5Ac2en] |  |  | 1.08±0.07 | 11.9 mM | IC50 ([4]; IC50, RgNanH 1.00 nM): ~12 mM
12 | Neu5Ac-α-2-3-Gal-β-1-4-GlcNAc [3′-α-Sialyl-N-acetyllactosamine] | + | + |  |  | 
13 | Neu5Ac-α-2-6-Gal-β-1-4-GlcNAc [6′-α-Sialyl-N-acetyllactosamine] | + |  |  |  | 
